Measurements as given in patent EP0641569A1, “ANTIPRURITIC” (ONO PHARMACEUTICAL CO., LTD., priority 1992, dated 1993).

How the values were obtained:
patients in hemodialysis = assay: Treatment for pruritus cutanea in hemodialysis (improvement score of itching and rash); format: in vivo, human; conditions: for improvement in itching: four patients in hemodialysis with severe itching, no effect with other agents, hydrate
Protocol: 8-[p-(4-phenylbutoxy)benzoyl]amino-2-(tetrazol-5-yl)-4-oxo-4H-1-benzopyran·1/2 hydrate (abbreviated as "Compound A" hereafter) were administered at the dose of 225 mg or 450 mg per day to four patients in hemodialysis (dialyzed for 3 to 11 years) who have severe itching and show no effect with other agents [no effect even with antihistamine, azerastin (anti-allergy agent already on the market) and steroid ointment]. The evaluation was carried out by improvement score of subjective symptom according to "The Standard of degree of Itching" and of rash (judged by slide).

Acute toxicity in mice = conditions: Jcl-ICR, mouse, in vivo, read-out: LD₅₀
Protocol: (§1) Compound A was orally or subcutaneously administered to each ten male and female 6-weeks aged Jcl-ICR mice and Jcl-SD rats, respectively per group. Two groups of Compound A (1000 and 2000 mg/kg) were used by suspending into 0.5% carboxymethyl cellulose (CMC) aqueous solution at the concentration of 100 mg/ml.

Acute toxicity in rats = conditions: Jcl-SD, rat, in vivo, read-out: LD₅₀
Protocol: as §1

[1] = 225 mg or 450 mg per day, four patients in hemodialysis

O=C(Nc1cccc2c(=O)cc(-c3nnn[nH]3)oc12)c1ccc(OCCCCc2ccccc2)cc1 [Compound A, 8-[p-(4-phenylbutoxy)benzoyl]amino-2-(tetrazol-5-yl)-4-oxo-4H-1-benzopyran·1/2 hydrate]
side effect (patients in hemodialysis; [1]): no side effect
subjective symptom and objective symptom (rash), daytime and nighttime (patients in hemodialysis; [1]): Improvement was shown
improvement in itching (patients in hemodialysis; 225 mg or 450 mg per day): became better
improvement in itching (patients in hemodialysis; 225 mg or 450 mg per day, listed as 8-[p-(4-phenylbutoxy)benzoyl]amino-2-(tetrazol-5-yl)-4-oxo-4H-1-benzopyran semih): Remarkable improvement
LD50 (Acute toxicity in mice; po, orally, female): > 2000 mg/kg
LD50 (Acute toxicity in mice; po, orally, male): > 2000 mg/kg
LD50 (Acute toxicity in mice; sc, subcutaneously, female): > 2000 mg/kg
LD50 (Acute toxicity in mice; sc, subcutaneously, male): > 2000 mg/kg
LD50 (Acute toxicity in rats; po, orally, female): > 2000 mg/kg
LD50 (Acute toxicity in rats; po, orally, male): > 2000 mg/kg
LD50 (Acute toxicity in rats; sc, subcutaneously, female): > 2000 mg/kg
LD50 (Acute toxicity in rats; sc, subcutaneously, male): > 2000 mg/kg

CN1CCCC(n2nc(Cc3ccc(Cl)cc3)c3ccccc3c2=O)CC1 (stereo not shown) [azerastin, reference compound]
effect on itching (patients in hemodialysis; earlier treatment of the same four patients with other agents): no effect
